In assay [1] the test system is mouse. Kind of assay: mouse elevated plus maze model. It is filed as in vivo.
Assay [2] has as its system mouse. Nature of the assay: mouse conditioned active avoidance response model. Type of assay: in vivo. The source says: (Pfeiffer & Jenney, Ann. N.Y. Acad. Sci., 66:[…], 1957; Maffii, J. Pharm. Pharmacol., 11: 129-139, 1959; Cook & Weidley, Ann; N.Y. Acad. Sci., 66: […], 1957; Janke, Handbook of Experimental Pharmacology, Vol. 55/I, New York: Plenum Press, 1978).

In assay [3] the test system is metabotropic glutamate receptors. Kind of assay: selective displacement of 1S,3R-ACPD-sensitive [3H]glutamate binding to rat brain cell membranes (crude membranes of rat forebrain). The procedure: The binding of [^3H]glutamate was conducted with crude membranes of rat forebrain as described by Schoepp and True. Schoepp and True, Neuroscience Lett., 145, 100-104 (1992) and Wright et al., J. Neurochemisty 63: 938-945 (1994).

For the compound `Cc1cccc(C[C@@H]2C[C@H]3[C@H](C(=O)O)[C@H]3[C@]2(N)C(=O)O)c1` (racemic) [Example 4, 1SR,2SR,3SR,5RS,6SR-Amino-3-((3-methyl)benzyl)bicyclo[3.1.0]hexane-2,6-dicarboxylic acid], in the assay with mouse [1], the anxiolytic effect result is recorded as “anxiolytic effect”.

Regarding `N[C@@]1(C(=O)O)[C@H](Cc2ccc(F)c(F)c2F)C[C@H]2[C@H](C(=O)O)[C@H]21` (racemic) [Example 25, 1SR,2SR,3SR,5RS,6SR-2-Amino-3-((2,3,4-trifluoro)-benzyl)bicyclo[3.1.0]hexane-2,6-dicarboxylic acid], the neuroleptic properties result with mouse [2] is given as “neuroleptic properties”.

In assay [3], `NC1(C(=O)O)C(CCCc2ccccc2)CC2C(C(=O)O)C21` (stereo not drawn) [Example 1, Mixture of 1SR,2SR,3RS,5RS,6SR-2-amino-3-(3-phenylpropyl)bicyclo[3.1.0]-hexane-2,6-dicarboxylic acid and 1SR, 2RS, 3RS, 5RS, 6SR-2-amino-3-(3-phenylpropyl)bicyclo[3.1.0]hexane-2,6-dicarboxylic acid] displayed an IC50 of 320 nM.

The term IC50 denotes the point on the concentration scale where inhibition reaches its midpoint.

Source of the values: patent EP0774455A1, “Excitatory amino acid receptor antagonists” (ELI LILLY AND COMPANY, priority 1995, dated 1997).
